Legend:
Pgp3 WT = Pgp3 WT (Campylobacter jejuni, UniProt Q0P921); assay: Isothermal-titration calorimetry (ITC) with Pgp3 WT; format: binding, C. jejuni
Description: The gene encoding the amino-acid sequence of Glu21–Gln273 of Pgp3 from C. jejuni (strain ATCC 33560) was cloned into the expression vector pET-21a (Novagen) producing the recombinant wild-type Pgp3 protein with the C-terminal His6-tag ([…]). The protein expression and purification were conducted according to previously described methods with exception. The HiTrap chelating HP (GE Healthcare) column was washed with the lysis buffer containing 60 mM imidazole and the protein was eluted with a linear gradient from 100 to 500 mM imidazole. The protein was further purified by gel filtration on a HiLoad 16/60 Superdex 200 prep-grade column (GE Healthcare), which was previously equilibrated with 20 mM Tris-HCl pH 8.0 and 200 mM NaCl. The fractions containing the Pgp3 protein were pooled and concentrated to 15 mg mL^−1 for crystallization. The variants of Pgp3 (S169A, R195A, H216A, and H247A) were generated by site-directed mutagenesis using primer sets in Supplementary Table 1 and were purified as described for the WT Pgp3.
Using a micro-syringe, 2.5 μL of each inhibitor (2.25 mM) was added at intervals of 200 s to the Pgp3 solution in the cell with gentle stirring (125 rpm). The same ITC condition was applied to evaluate the KD values of BMK-S101 for each Pgp3 variant. All data were fitted to the single-binding-site model. Fitted curves were generated using GraphPad Prism 7. Data are mean ± SEM from triplicate experiments and the ITC thermograms are representative of triplicate experiments.

Pgp3 = Pgp3 (Campylobacter jejuni, UniProt Q0P921); assay: biochemical; design: species or system C. jejuni
Description: Because DABCYL/FITC is a typical FRET quencher–fluorophore pair, an increase in fluorescent signals can be directly detected when it is processed by Pgp3 (Tang et al., 2013). The kinetic parameters (kcat = 0.0209 ± 0.0006 s^−1 and KM = 6.6 ± 0.7 µM) for the substrate were obtained by fitting the data to the Michaelis-Menten equation (Supplementary Fig. 8a).
The enzymatic assay for Pgp3 activity was determined using a fluorescein isothiocyanate (FITC) and 4′-([4′-(Dimethylamino)phenyl]-azo)-benzoic acid (DABCYL) pair for FRET. […] The excitation and emission spectra were set at 495 nm and 525 nm, respectively. Pgp3 (0.1 μM) in 20 mM HEPES pH 7.5, 200 mM NaCl, and 0.4 μM of zinc was used in this assay. The reaction was initiated by adding 3 μL of 0.015–2 mM substrate (final 1.56–200 μM) in the total volume of 30 μL of the reaction mixture. Initial velocities were calculated using slopes of fluorescence signal intensity in 3 min after the initiation of the reaction. In order to elucidate the inhibition mechanism of BMK-S301, initial velocities with various concentrations of substrates were measured in the presence of 40 μM BMK-S301. […] The same method was used for the determination of the IC50 values for inhibitors. Inhibitors in each concentration were pre-incubated with 0.1 μM of Pgp3 for 1 h on ice, and initial velocities were determined for 0.1, 10, 50, 100, 200, 500, and 1000 μM of each inhibitor in reaction with 10 μM of substrate. The IC50 values were calculated using GraphPad Prism 7.

Chain of Pgp3 WT (Q0P921 entry or part of it): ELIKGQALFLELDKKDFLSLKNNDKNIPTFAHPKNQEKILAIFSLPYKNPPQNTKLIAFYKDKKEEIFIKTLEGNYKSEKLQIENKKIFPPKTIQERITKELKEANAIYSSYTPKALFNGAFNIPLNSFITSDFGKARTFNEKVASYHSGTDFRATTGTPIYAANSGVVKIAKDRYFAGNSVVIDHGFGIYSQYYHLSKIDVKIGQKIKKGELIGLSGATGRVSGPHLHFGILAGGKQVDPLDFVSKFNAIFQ
Chain of Pgp3 (Q0P921 entry or part of it): as above

`CC(=O)N[C@@H](Cc1ccc(S(N)(=O)=O)cc1)C(=O)N[C@H](C)C(=O)NO` [BMK-S301] was tested, and the Kd (Pgp3 WT) was 3.5 ± 0.2 µM and the IC50 (Pgp3) was 22 ± 1.4 µM.
